The test system of one assay is HL-60. The assay can be described thus: Cytotoxicity against human HL-60 cells assessed as cell growth inhibition incubated for 72 hrs by CCK8 assay. The format is functional, cell-based. Particulars: HL-60, 72 h.
The subject of a further assay is A549. The assay can be described thus: Cytotoxicity against human A549 cells assessed as cell growth inhibition by SRB assay. The assay is classed as functional, cell-based. (In general: The SRB assay estimates cell density from bound dye.)

Data on five compounds can be found in ChEMBL document CHEMBL5055670, “Sublyratins A-O, Labdane-Type Diterpenoids from Croton sublyratus” (J Nat Prod, 2021).

For orientation: IC50 means the concentration that gives 50% inhibition.

Each structure is given as a SMILES string. Where a name gives a salt, the structure may show the parent alone.

Regarding `C=C[C@@](C)(O)[C@H]1C[C@H]2C(=CC[C@H]3C(C)(C)CCC[C@]23C)C(=O)O1`, the figures for the IC50 with HL-60 and in the assay on A549 were 2.8 µM and over 10 µM, respectively.

Turning to `C=C[C@](C)(O)[C@@H]1C[C@H]2C(=CC[C@H]3C(C)(C)CCC[C@]23C)C(=O)O1`, the IC50 in the assay with HL-60 was 2.4 µM; with A549 it was over 10 µM.

Take `C=C[C@@](C)(O)[C@@H]1C[C@H]2C(=CC[C@H]3C(C)(C)CCC[C@]23C)C(=O)O1`: the IC50 in the assay on HL-60 is 1.5 µM; in the assay on A549 it was over 10 µM.

Take `C=C[C@](C)(O)[C@H]1C[C@H]2C(=CC[C@H]3C(C)(C)CCC[C@]23C)C(=O)O1`: the half-maximal inhibitory concentration (IC50) is 2.6 µM in the assay on HL-60 and over 10 µM in the assay with A549.

`COc1cccc2c1C(=O)c1c(O)c3c(c(O)c1C2=O)C[C@@](O)(C(=O)CO)C[C@@H]3O[C@H]1C[C@H](N)[C@H](O)[C@H](C)O1` [DOXORUBICIN HYDROCHLORIDE]: the IC50 with A549 came out at 0.85 µM.
